In brackets after ≈: the same amount, converted by molar mass.
Assays:
[1] = system: LPS-induced pulmonary inflammasome model; experiment: LPS-induced pulmonary inflammasome model (BAL cell counts, BAL IL-1β); format: in vivo, Sprague Dawley rats; conditions: for BAL IL-1β, average / BAL cells (%), EO (eosinophil), average / BAL cells (%), LM (lymphocytes), average / BAL cells (%), NP (neutrophils), average / BAL number cells, EO (eosinophil), average / BAL number cells, LM (lymphocytes), average / BAL number cells, NP (neutrophils), average: 24 hours, n = 4; for LPS-induced IL-1β (%): relative to LPS + IT saline = 100
Method: To compare the efficacy of intratracheal, direct-lung aerosol administration and oral gavage, the LPS-induced pulmonary inflammasome model was performed. Briefly, Sprague Dawley rats (200-250 grams) were administered a single dose of LPS by the intratracheal route (IT) using a intubation aerosol delivery device. All IT doses were delivered just above the first pulmonary bifurcation. Sham animals were treated with saline. […] Lungs were lavaged and collected bronchial lavage fluid (BAL) was assessed for total cell count, neutrophils, macrophage, eosinophils and lymphocytes. BAL was also assessed for IL-1b.

[2] = system: inflammasome activation in 264.7 macrophages; experiment: Inflammasome second signal activation (ATP, secreted IL-1β); format: cell-based; conditions: for IL-1β: LPS +, ATP +; for IC50: Macrophage
[3] = Pharmacokinetics and tissue distribution (lung, plasma, heart, kidney) of co-solvent formulations, intratracheal bolus aerosol; format: in vivo, Sprague-Dawley rats; conditions: for concentration at 0.167 hr / concentration at 0.333 hr / concentration at 0.667 hr / concentration at 0 h / concentration at 4 min / concentration at 2.5 h / concentration at 0.167 h / concentration at 0.333 h / concentration at 0.667 h / concentration at 1 h: Sprague-Dawley, rat, 4 mg/kg, Pirfenidone, Mean, about 4 mg/kg IT aerosol; for concentration at 0.167 hr / concentration at 0.333 hr / concentration at 0.667 hr: other: intratracheal bolus aerosol (nebulizing catheter); for concentration at 0 h / concentration at 4 min / concentration at 2.5 h / concentration at 0.167 h / concentration at 0.333 h / concentration at 0.667 h / concentration at 1 h: other: intratracheal bolus aerosol; for concentration at 4 min: 0.0667 hr
Method: Selected formulations were prepared for pharmacokinetic analysis following aerosol delivery to rat lung. […] Formulations prepared for this study are outlined in Table 9. […] The sample was agitated until completely dissolved. […] Filtered samples were analyzed by HPLC.

[4] = 0.5 mg/kg intratracheal, single dose with LPS, BAL after 24 hours
[5] = 30 mg/kg oral gavage 2 hours before LPS (60-fold larger dose)
[6] = LPS + PO pirfenidone 30.0 mg/kg

## Cc1ccc(=O)n(-c2ccccc2)c1 [pirfenidone, 5-methyl-1-phenyl-2-(1H)-pyridone]
[1]; 0.5 mg/kg IT
  lung tissue Cmax (estimated): ~83 mcg/gram
[1]; [4]
  LPS-induced inflammatory cell infiltration (BAL): negated
  reduction of LPS-induced BAL IL-1β levels: 62%
[1]; [5]
  effect on LPS-induced BAL IL-1β levels: no effect
  effect on LPS-induced inflammatory cell infiltration (BAL): no effect
[1]; LPS + IT pirfenidone 0.5 mg/kg
  BAL IL-1β, average: 36.2 pg/mL
  BAL cells (%), EO (eosinophil), average: 0.7%
  BAL cells (%), LM (lymphocytes), average: 1.0%
  BAL cells (%), NP (neutrophils), average: 13.0%
  BAL number cells, EO (eosinophil), average: 0.0 1 × 10e5
  BAL number cells, LM (lymphocytes), average: 0.1 1 × 10e5
  BAL number cells, NP (neutrophils), average: 0.7 1 × 10e5
  LPS-induced IL-1β (%): 38%
[1]; [6]
  BAL IL-1β, average: 105.9 pg/mL
  BAL cells (%), EO (eosinophil), average: 0.6%
  BAL cells (%), LM (lymphocytes), average: 0.9%
  BAL cells (%), NP (neutrophils), average: 36.4%
  BAL number cells, EO (eosinophil), average: 0.3 1 × 10e5
  BAL number cells, LM (lymphocytes), average: 0.3 1 × 10e5
  BAL number cells, NP (neutrophils), average: 13.2 1 × 10e5
  LPS-induced IL-1β (%): 113%
[2]; Longer-term exposure, 40 min > ATP, pirfenidone 5 mcg/mL
  IL-1β: 1.4 pg/mL
[2]; Longer-term exposure, 40 min > ATP, pirfenidone 25 mcg/mL
  IL-1β: 1.1 pg/mL
[2]; Longer-term exposure, 40 min > ATP, pirfenidone 125 mcg/mL
  IL-1β: 0.9 pg/mL
[2]; Longer-term exposure, 40 min > ATP, pirfenidone 625 mcg/mL
  IL-1β: 0.4 pg/mL
[2]; 40 min, second (40 minute) sampling point alone, short-term exposure
  IC50: ~25 µg/mL (≈ 135 µM)
[2]; sum of short-term sampling points and longer-term sampling point
  IC50: ~625 µg/mL (≈ 3370 µM)
[2]; Short-term exposure, 10 + 40 min > ATP (sum of sampling points), pirfenidone 5 mcg/mL
  IL-1β: 1.1 pg/mL
[2]; Short-term exposure, 10 + 40 min > ATP (sum of sampling points), pirfenidone 25 mcg/mL
  IL-1β: 1.0 pg/mL
[2]; Short-term exposure, 10 + 40 min > ATP (sum of sampling points), pirfenidone 125 mcg/mL
  IL-1β: 1.0 pg/mL
[2]; Short-term exposure, 10 + 40 min > ATP (sum of sampling points), pirfenidone 625 mcg/mL
  IL-1β: 0.6 pg/mL
[2]; Short-term exposure, 10 min > ATP, pirfenidone 5 mcg/mL
  IL-1β: 81.5 pg/mL
[2]; Short-term exposure, 10 min > ATP, pirfenidone 25 mcg/mL
  IL-1β: 100.0 pg/mL
[2]; Short-term exposure, 10 min > ATP, pirfenidone 125 mcg/mL
  IL-1β: 118.7 pg/mL
[2]; Short-term exposure, 10 min > ATP, pirfenidone 625 mcg/mL
  IL-1β: 66.3 pg/mL
[2]; Short-term exposure, 40 min > ATP, pirfenidone 5 mcg/mL
  IL-1β: 95.8 pg/mL
[2]; Short-term exposure, 40 min > ATP, pirfenidone 25 mcg/mL
  IL-1β: 50.4 pg/mL
[2]; Short-term exposure, 40 min > ATP, pirfenidone 125 mcg/mL
  IL-1β: 36.3 pg/mL
[2]; Short-term exposure, 40 min > ATP, pirfenidone 625 mcg/mL
  IL-1β: 27.3 pg/mL
[3]; heart, heart tissue, Group 1
  concentration at 0.167 hr: 4910 ng/g
  concentration at 0.333 hr: 3850 ng/g
  concentration at 0.667 hr: 1800 ng/g
  concentration at 0 h: 20 ng/g
  concentration at 4 min: 7900 ng/g
  concentration at 2.5 h: 90 ng/g
[3]; heart, heart tissue, Group 2
  concentration at 0.167 hr: 4100 ng/g
  concentration at 0.333 hr: 3130 ng/g
  concentration at 0.667 hr: 2190 ng/g
  concentration at 0 h: 190 ng/g
  concentration at 4 min: 5920 ng/g
  concentration at 2.5 h: 120 ng/g
[3]; heart, heart tissue, Group 6
  concentration at 0.167 hr: 4950 ng/g
  concentration at 0.333 hr: 3430 ng/g
  concentration at 0.667 hr: 2220 ng/g
  concentration at 0 h: 80 ng/g
  concentration at 4 min: 6320 ng/g
  concentration at 2.5 h: 120 ng/g
[3]; kidney, kidney tissue, Group 1
  concentration at 0 h: 10 ng/g
  concentration at 4 min: 9880 ng/g
  concentration at 0.167 h: 6620 ng/g
  concentration at 0.333 h: 4870 ng/g
  concentration at 0.667 h: 2860 ng/g
[3]; kidney, kidney tissue, Group 2
  concentration at 0 h: 470 ng/g
  concentration at 4 min: 10800 ng/g
  concentration at 0.167 h: 8300 ng/g
  concentration at 0.333 h: 7440 ng/g
  concentration at 0.667 h: 3310 ng/g
  concentration at 1 h: 1750 ng/g
  concentration at 2.5 h: 180 ng/g
[3]; kidney, kidney tissue, Group 6
  concentration at 0 h: 270 ng/g
  concentration at 4 min: 12900 ng/g
  concentration at 0.167 h: 6650 ng/g
  concentration at 0.333 h: 4870 ng/g
  concentration at 0.667 h: 3530 ng/g
  concentration at 1 h: 1710 ng/g
[3]; about 4 mg/kg intratracheal bolus aerosol, co-solvent formulations, rats
  adverse events: No adverse events were noted
